Experimental data published in ChEMBL document CHEMBL1139353, “Discovery of a new class of potential multifunctional atypical antipsychotic agents targeting dopamine D3 and serotonin 5-HT1A and 5-HT2A receptors: design, synthesis, and effects on behavior” (J Med Chem, 2009).
Active and inactive are the calls of the source. No cut-off for these calls is given here.

Assays:
[1] = biological target: 5-hydroxytryptamine receptor 2A (Rattus norvegicus, UniProt P14842)
Description: Displacement of [3H]ketanserin from 5HT2A receptor in CRL:CD(SD)BR-COBS rat cortex by scintillation spectrometry

[2] = biological target: Voltage-gated inwardly rectifying potassium channel KCNH2 (Homo sapiens, UniProt Q12809)
Description: Binding affinity to human ERG expressed in HEK293 cells by whole cell patch clamp method

Mus musculus [3] = species on record: Mus musculus; conditions: in vivo, 0.5 h
Description: Sedative activity in NMRI mouse assessed as reduction in spontaneous locomotor activity administered 30 mins prior to testing

D(3) dopamine receptor = D(3) dopamine receptor (Homo sapiens, UniProt P35462); assay: biochemical
Description: Displacement of [3H]7OH-DPAT from dopamine D3 receptor expressed in Sf9 cells by scintillation spectrometry

[4] = biological target: T1, 5-hydroxytryptamine receptor 1A (Rattus norvegicus, UniProt P19327); assay: biochemical
T1 sequence (P19327 whole entry): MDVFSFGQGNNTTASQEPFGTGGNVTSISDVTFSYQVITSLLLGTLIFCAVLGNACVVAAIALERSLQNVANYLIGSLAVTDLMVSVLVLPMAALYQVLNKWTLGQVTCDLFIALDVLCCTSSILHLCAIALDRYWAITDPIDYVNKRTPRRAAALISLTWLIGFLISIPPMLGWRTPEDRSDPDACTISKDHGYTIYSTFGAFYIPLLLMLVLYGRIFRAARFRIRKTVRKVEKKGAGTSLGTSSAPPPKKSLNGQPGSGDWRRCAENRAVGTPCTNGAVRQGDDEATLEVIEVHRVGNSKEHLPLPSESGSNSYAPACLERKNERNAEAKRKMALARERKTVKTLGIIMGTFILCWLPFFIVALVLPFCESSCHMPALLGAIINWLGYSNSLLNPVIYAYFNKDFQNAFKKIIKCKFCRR
Description: Displacement of [3H]8OH-DPAT from 5HT1A receptor in CRL:CD(SD)BR-COBS rat hippocampus by scintillation spectrometry

Mus musculus [5] = species on record: Mus musculus; assay: animal or person; conditions: NMRI
Description: Antipsychotic activity in NMRI mouse assessed as reduction in methamphetamine-induced locomotor activity administered 30 mins prior to testing measured for 60 mins

Mus musculus [6] = species on record: Mus musculus; assay: animal or person; conditions: NMRI; remark: listed apart in the source
Description: Antipsychotic activity in NMRI mouse assessed as reduction in phencyclidine-induced locomotor activity administered 30 mins prior to testing measured for 60 mins

D(1A) dopamine receptor = D(1A) dopamine receptor (Rattus norvegicus, UniProt P18901)
Description: Displacement of [3H]SCH23390 from dopamine D1 receptor in CRL:CD(SD)BR-COBS rat striatum by scintillation spectrometry

Mus musculus [7] = species on record: Mus musculus; conditions: in vivo, sc, 1 h
Description: Toxicity in sc dosed NMRI mouse assessed as cataleptogenic potential administered 30 mins prior to testing measured every 15 mins for 60 mins by horizontal bar test

[8] = biological target: D(1A) dopamine receptor (Rattus norvegicus) (UniProt P18901); assay: Displacement of [3H]SCH23390 from dopamine D1 receptor in CRL:CD(SD)BR-COBS rat striatum at 100 uM by scintillation spectrometry
D(1A) dopamine receptor (Rattus norvegicus), sequence (P18901 whole entry): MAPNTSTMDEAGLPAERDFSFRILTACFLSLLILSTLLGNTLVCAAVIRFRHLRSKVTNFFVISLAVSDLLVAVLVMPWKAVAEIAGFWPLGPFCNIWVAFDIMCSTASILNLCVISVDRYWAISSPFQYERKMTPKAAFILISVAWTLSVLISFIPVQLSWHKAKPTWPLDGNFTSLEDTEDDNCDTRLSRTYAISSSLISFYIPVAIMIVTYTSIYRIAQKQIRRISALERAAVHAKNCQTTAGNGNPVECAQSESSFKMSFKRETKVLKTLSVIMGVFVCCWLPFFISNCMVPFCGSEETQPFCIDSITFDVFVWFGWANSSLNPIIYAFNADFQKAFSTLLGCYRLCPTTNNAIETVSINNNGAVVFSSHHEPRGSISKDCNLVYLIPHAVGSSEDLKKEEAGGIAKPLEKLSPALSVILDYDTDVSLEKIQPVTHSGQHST

D(3) dopamine receptor, sequence (P35462 whole entry): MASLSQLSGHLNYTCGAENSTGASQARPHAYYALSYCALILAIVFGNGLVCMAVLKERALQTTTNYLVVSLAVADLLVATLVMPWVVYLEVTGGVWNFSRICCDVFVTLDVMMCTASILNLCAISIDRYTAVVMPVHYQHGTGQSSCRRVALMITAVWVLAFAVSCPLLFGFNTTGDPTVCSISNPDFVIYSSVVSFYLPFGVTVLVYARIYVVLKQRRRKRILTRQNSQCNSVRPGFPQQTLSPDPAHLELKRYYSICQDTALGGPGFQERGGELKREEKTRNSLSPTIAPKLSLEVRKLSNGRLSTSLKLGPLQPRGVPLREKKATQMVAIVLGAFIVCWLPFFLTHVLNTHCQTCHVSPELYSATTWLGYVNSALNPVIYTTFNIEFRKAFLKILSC
D(1A) dopamine receptor, sequence (P18901 whole entry): as the sequence (P18901 whole entry) above
5-hydroxytryptamine receptor 2A, sequence (P14842 whole entry): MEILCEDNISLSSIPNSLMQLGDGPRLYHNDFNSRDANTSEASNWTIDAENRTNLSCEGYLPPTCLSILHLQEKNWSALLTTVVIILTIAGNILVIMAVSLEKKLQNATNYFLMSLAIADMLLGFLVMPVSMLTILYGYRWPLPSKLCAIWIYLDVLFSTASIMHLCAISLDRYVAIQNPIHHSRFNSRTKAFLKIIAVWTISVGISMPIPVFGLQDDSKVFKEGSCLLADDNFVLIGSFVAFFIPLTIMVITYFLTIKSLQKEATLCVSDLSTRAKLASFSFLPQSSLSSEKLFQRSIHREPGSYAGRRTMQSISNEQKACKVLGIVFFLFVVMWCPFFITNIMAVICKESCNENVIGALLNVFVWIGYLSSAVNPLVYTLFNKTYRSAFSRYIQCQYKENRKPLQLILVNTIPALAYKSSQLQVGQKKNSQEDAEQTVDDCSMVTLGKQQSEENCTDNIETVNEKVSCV
Voltage-gated inwardly rectifying potassium channel KCNH2, sequence (Q12809 whole entry): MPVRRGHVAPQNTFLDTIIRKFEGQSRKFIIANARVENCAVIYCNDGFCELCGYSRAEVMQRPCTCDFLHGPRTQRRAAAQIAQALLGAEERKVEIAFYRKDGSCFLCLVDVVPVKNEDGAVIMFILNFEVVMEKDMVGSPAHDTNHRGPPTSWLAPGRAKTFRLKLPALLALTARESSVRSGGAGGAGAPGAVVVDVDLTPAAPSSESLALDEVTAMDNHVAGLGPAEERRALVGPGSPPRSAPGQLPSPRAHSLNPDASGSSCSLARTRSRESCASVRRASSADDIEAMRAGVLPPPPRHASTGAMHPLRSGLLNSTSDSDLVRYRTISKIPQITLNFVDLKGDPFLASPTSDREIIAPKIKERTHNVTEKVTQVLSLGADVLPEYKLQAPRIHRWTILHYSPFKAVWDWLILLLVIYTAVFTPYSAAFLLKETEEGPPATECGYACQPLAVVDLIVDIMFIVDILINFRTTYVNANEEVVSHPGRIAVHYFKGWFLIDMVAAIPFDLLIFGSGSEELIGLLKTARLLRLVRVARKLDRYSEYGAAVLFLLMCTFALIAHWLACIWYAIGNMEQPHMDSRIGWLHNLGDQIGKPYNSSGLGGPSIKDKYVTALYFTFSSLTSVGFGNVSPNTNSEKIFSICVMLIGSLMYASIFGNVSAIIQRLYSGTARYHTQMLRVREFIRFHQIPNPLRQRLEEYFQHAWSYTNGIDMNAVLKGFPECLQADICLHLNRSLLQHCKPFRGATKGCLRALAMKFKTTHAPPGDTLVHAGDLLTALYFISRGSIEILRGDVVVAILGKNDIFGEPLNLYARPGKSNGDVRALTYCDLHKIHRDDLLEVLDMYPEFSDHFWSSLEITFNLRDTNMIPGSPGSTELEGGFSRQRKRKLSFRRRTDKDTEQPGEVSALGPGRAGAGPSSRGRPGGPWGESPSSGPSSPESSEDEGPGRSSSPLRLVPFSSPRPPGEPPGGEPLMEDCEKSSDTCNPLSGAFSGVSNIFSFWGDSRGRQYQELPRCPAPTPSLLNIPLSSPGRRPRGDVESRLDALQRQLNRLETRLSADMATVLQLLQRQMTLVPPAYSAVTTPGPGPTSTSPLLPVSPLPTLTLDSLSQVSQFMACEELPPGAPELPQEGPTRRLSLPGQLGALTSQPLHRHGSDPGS

Compound	Ki [1] [nM]	Ki [2] [nM]	ED50 (Mus musculus [3]) [mg/kg]	Ki (D(3) dopamine receptor) [nM]	Ki [4] [nM]	ED50 (Mus musculus [5]) [mg/kg]	ED50 (Mus musculus [6]) [mg/kg]	Ki (D(1A) dopamine receptor) [nM]	ED50 (Mus musculus [7]) [mg/kg]	Activity [8]
Clc1cccc(N2CCN(CCCCCOc3cc4ccccc4cn3)CC2)c1Cl	57	210	> 30	0.14	18	> 10	> 10			
COc1cccc2cc3n(c12)CCN(CCCCN1CCn2c(cc4ccccc42)C1=O)C3	200	260		8.6	33			> 10000		
N#Cc1cccc(N2CCN(CCCCNC(=O)c3cc4ccccc4o3)CC2)c1		390		0.54				> 10000		
O=C(NCCCCN1CCN(c2ccc(Cl)cc2Cl)CC1)c1cc2ccccc2[nH]1							> 30			
Cc1cc2c(s1)Nc1ccccc1N=C2N1CCN(C)CC1 [OLANZAPINE]		36000								
COc1cccc2c1C1CCN(CCCCNC(=O)C3=Cc4ccccc4CN3)CC1=N2 (stereo not given)	149			6	118			> 10000		
O=C(NCCCCN1CCN(c2cccc(Cl)c2Cl)CC1)c1cc2ccccc2cn1	41	200		0.099	5			4600		
COc1cccc2cc3n(c12)CCN(CCCCNC(=O)C1=Cc2ccccc2CN1)C3	164	1840		33.5	28			> 10000		
O=C(NCCCCN1CCN(c2ccc(Cl)cc2Cl)CC1)c1cc2cc(Cl)ccc2[nH]1				0.38			> 30			
O=C1c2cc3ccccc3n2CCN1CCCCN1CCN(c2ccc(Cl)cc2Cl)CC1	300			3.2				4320		
O=C(NCCCCN1CCN(c2cccc(Cl)c2)CC1)c1cc2ccccc2cn1	23.4	300	14	0.27	14.7	4.2	6.7	5500		
CN1CCN(C2=Nc3cc(Cl)ccc3Nc3ccccc32)CC1 [CLOZAPINE]			2.4			2.5	1.1		> 30	
Clc1cccc(N2CCN(CCCCOc3ccc4cccnc4c3)CC2)c1Cl	127			8.2	4					inactive
O=C1c2cc3ccccc3n2CCN1CCCCN1CCN(c2cccc(Cl)c2Cl)CC1	83	200	> 30	0.105	9.3	3.7	> 3	4370		
O=C(CCCN1CCC(O)(c2ccc(Cl)cc2)CC1)c1ccc(F)cc1 [HALOPERIDOL]			0.08				0.09		0.19	
Clc1cccc(N2CCN(CCCCOc3cc4ccccc4cn3)CC2)c1Cl	123	160		32.9	24.2					
N#Cc1cccc(N2CCN(CCCCN3CCn4c(cc5ccccc54)C3=O)CC2)c1	389			3.7				> 10000		
